Reference: patent US6025365A, “Chelerythrine and radiation combined tumor therapy” (Arch Development Corp., priority 1997, dated 2000)

Tests used:
WEHI-231 cells = assay: Sphingomyelin mass by lipid extraction / TLC; type: cell-based, murine; conditions: 10 μM chelerythrine, 60 minutes
Experimental: FIG. 7A. Inhibition of PKC causes an increase in ceramide production through the activation of a neutral sphingomyelinase and decreases in sphingomyelin levels. Ceramide production was quantitated using the DAG kinase assay for WEHI-231 JM cells and total lipid extraction was used to assay sphingomyelin mass. Following addition of 10 μM chelerythrine, cells were lysed at the appropriate time points as described herein. Each data point represents the average percentage change in ceramide or sphingomyelin generation from baseline derived from at least 8 independent studies for all time points with the exception of those marked with * (n=4). Standard deviations depicted by error bars.
FIG. 7B. […] Ceramide production and sphingomyelin mass was quantitated identical to that for chelerythrine. Cells were lysed 2 hours following the addition of 250 nM calphostin C. […]
Cells were prelabeled with [^3 H] palmitate (10 μCi/ml) for 24 hours to isotopic equilibrium in 15 ml glass tubes to minimize changes in cellular ceramide and sphingomyelin due to handling and changing of media (Borchardt et al., 1994). […] Autoradiographs were quantitated using an Epson 1200 c 30 bit scanner and NIH Image software (public domain program developed at the NIH and available from the Internet via FTP from zippy.nimh.nih.gov). […]

SQ20-B cells = assay: Clonogenic survival / colony formation assay; type: cell-based, human
Experimental: FIG. 2. Chelerythrine chloride enhanced IR-mediated cell killing through divisional death. Clonogenic survival was measured following exposure to increasing concentrations of chelerythrine and ionizing radiation. Cells were plated at cell numbers between about 500 cells/plate and about 2000 cells/plate and treated with 0 μM, 0.5 μM, or 1.0 μM chelerythrine chloride for 30 minutes prior to irradiation. After 2 weeks the colonies were scored for survival if they were composed of more than 50 cells. Results represent the mean of three individual experiments with duplicate or triplicate determinants. Error bars represent +/- the standard error of the means (SEM).
FIG. 5C. […] Closed circles represent radiation alone; closed squares represenet addition of 20 μM C2-Ceramide 30 minutes prior to x-ray.
Exponentially growing SQ20B cultures were trypsinized using 0.05% trypsin+0.02% EDTA. Cells (100 to 50,000) were plated in 100 mm tissue culture dishes. Chelerythrine or C2-ceramide was added 4 hours after plating and irradiated for 30 minutes after the addition of chelerythrine or C2-ceramide. The cells were irradiated using a GE Maxitron 250 x-ray generator operating at 250 kV and 26 mA with a dose rate of 114 cGy/min. After 12 days the cells were fixed and stained with crystal violet following standard procedures (Chmura et al., 1996a; 1996b). Colonies of >50 cells were scored as survivors.
Clonogenic survival was measured following increasing concentrations of chelerythrine chloride alone (0.5-1.5 μM), IR alone (1-9 Gy), or the combined treatment of cells with chelerythrine and IR. […] At a concentration of 500 nM, chelerythrine decreased cell survival to about 80% of untreated control cells (about 20% cell death). The combined treatment of cells with 500 nM of chelerythrine 30 minutes prior to treatment with 3 Gy of radiation decreased cell survival to about 30% of untreated cells (about 70% cell death). […] Cell shrinkage and nuclear condensation, characteristic of apoptosis, were not observed at these concentrations of chelerythrine and IR.

[1] = Acute lethality / tolerability in mice
[2] = 500 nM chelerythrine 30 minutes prior to 3 Gy

For `COc1ccc2c(c[n+](C)c3c4cc5c(cc4ccc23)OCO5)c1OC` [chelerythrine, 1,2-dimethoxy-12-methyl[1,3]benzodioxolo[5,6-c]phenanthridinium], the sphingomyelin mass (WEHI-231 cells) was “about 55 % of control”, the “cell death, combined treatment” value (SQ20-B cells; [2]) was “about 70%” and the “cell survival, combined treatment” value (SQ20-B cells; [2]) was “about 30 % of untreated cells”. The cytotoxicity at 0.5 µM (SQ20-B cells; Homo sapiens, SQ20B, read-out: cell death) was ~20%, the viability at 0.5 µM (SQ20-B cells; Homo sapiens, SQ20B, 500 nM chelerythrine alone) was ~80% and the health of animals ([1]; all treatment groups, throughout the xenograft study) was “appeared healthy throughout the study”. The LD50 ([1]; mouse, in vivo, ip) was 25 mg/kg.
